One data set concerns the target T1, human amylin receptors (Homo sapiens, UniProt O60896+P30988).
T1 construct: host or cells: CHO-K1/Ga15/AMY3 cells, further stably transfected with a CRE-luciferase plasmid
T1 sequence (P30988 25-474): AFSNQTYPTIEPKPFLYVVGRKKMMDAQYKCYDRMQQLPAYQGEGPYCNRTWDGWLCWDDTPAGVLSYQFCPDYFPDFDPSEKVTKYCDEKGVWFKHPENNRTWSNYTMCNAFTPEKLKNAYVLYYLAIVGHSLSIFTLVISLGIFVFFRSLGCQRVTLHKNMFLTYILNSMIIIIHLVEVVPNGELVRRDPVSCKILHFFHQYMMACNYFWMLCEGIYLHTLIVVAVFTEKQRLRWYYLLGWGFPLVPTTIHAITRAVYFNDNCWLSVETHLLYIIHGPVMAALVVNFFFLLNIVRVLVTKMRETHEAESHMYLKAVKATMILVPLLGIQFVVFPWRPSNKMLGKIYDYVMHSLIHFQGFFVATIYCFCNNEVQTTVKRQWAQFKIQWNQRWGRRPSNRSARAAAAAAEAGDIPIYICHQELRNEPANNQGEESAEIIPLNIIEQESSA
T1 sequence (O60896 24-148 partner): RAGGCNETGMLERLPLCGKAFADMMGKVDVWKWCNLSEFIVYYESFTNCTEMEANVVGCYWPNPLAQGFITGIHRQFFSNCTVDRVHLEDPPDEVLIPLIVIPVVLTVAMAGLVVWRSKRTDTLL
Nature of the data set: Luciferase assay in stably transfected amylin receptor/CRE-luc CHO cell line. The conditions noted are these: for Relative activity: EC50 ratio of Cagrilintide to the compound, Cagrilintide 100%; for EC50: amylin receptor/CRE-luc CHO cells, 24 hours incubation, luminescence. The format is cell-based.

Data set [1] is described as follows: Heat accelerated stability assay, 40° C., detection on 7 d and 28 d. The format is physicochemical. The procedure, abridged: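 Derivatives at 1 mg/mL in water with sodium dihydrogen phosphate (1.42 mg/mL), pH about 7.4, sterile-filtered, stored sealed at 40° C. On days 7 and 28, appearance noted; after centrifugation, supernatant concentration and purity measured by reversed-phase HPLC at 214 nm (water/0.05% TFA–acetonitrile gradient).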

The nature of data set [2]: Heat accelerated stability assay, 40° C., detection on 10 d and 20 d. It counts as physicochemical. The conditions noted are these: 1 mg/mL, pH about 7.4, 40° C. As for the experimental part: The derivatives (1 mg/mL) were mixed with sodium dihydrogen phosphate (1.42 mg/mL) and dissolved in ultrapure water. After adjusting pH to about 7.4 with hydrochloric acid/sodium hydroxide, the solution was filtered into a sterilized vial in a clean bench using a 0.22 μm sterile filter. The vial was then capped and placed into the stability test chamber at 40° C. Detections were made on 10d and 20d, and during the assay changes in the characteristics and properties of the polypeptides were observed and recorded. The sample was then centrifuged for 3 min at 10000 rpm at 4° C., and the supernatant was transferred to a liquid phase sample vial for detecting the concentration and purity of the polypeptides using liquid phase chromatography described as below.
Flow rate: 1.0 mL/min; Autosampler temperature: 25° C.; Column temperature: 25° C.; Detection wavelength: 214 nm; Mobile phase A: 110 mM phosphate buffer (pH 5.8): ACN=90:10; Mobile phase B: ACN: IPA: H2O=85:5:10; and Gradient of elution listed in Table 6: […]

The next data set is described as follows: in vivo. To be noted: rat, sc, 1 mg/kg. Further details: species or system SD rats. The protocol:
The animals received a subcutaneous injection of corresponding compounds for testing (1 mg/kg and 5 ml/kg), and the day of administration was designated as D1. The whole blood of the animals was collected pre dose (-10 min) on D1 and post dose at D1-2h, D1-4h, D1-6h, D2-24h, D3-48h, D4-72h, D5-96h, and D6-120 h and was processed into plasma (using EDTA for anticoagulation). Liquid chromatography-tandem mass spectrometry (LC-MS/MS) was used to detect the concentration of drug molecules in the plasma, and GraphPad Prism 10 was utilized to plot a concentration-time curve for the drugs whose pharmacokinetic parameters including Cmax, Tmax, T1/2, AUC, and MRT were then calculated with PKSolver.

Starred links: 1 amine or outer side, 2 acyl side, 3 side chain; linkers in the order of their positions; H or OH if unused. Non-standard residues stand in square brackets, D forms with d. Residues, ends and D or L forms follow the SMILES beside them. *: point of attachment. C20 diacid = O=C(O)CCCCCCCCCCCCCCCCCCC(=O)*; γGlu = O=C(O)[C@H](CCC(=O)[*:2])N[*:1]; Hyp = O=C(O)[C@@H]1C[C@@H](O)CN1; NMeN = CN[C@@H](CC(N)=O)C(=O)O

Consider `CC[C@H](C)[C@H](NC(=O)[C@@H]1CCCN1C(=O)CNC(=O)[C@H](Cc1ccccc1)NC(=O)[C@H](CC(N)=O)NC(=O)[C@H](CC(N)=O)NC(=O)[C@H](CO)NC(=O)[C@H](CO)NC(=O)[C@H](Cc1c[nH]cn1)NC(=O)[C@H](CCCNC(=N)N)NC(=O)[C@H](CC(C)C)NC(=O)[C@H](Cc1ccccc1)NC(=O)[C@H](CCC(=O)O)NC(=O)[C@H](C)NC(=O)[C@H](CC(C)C)NC(=O)[C@H](CCCNC(=N)N)NC(=O)[C@H](CCC(N)=O)NC(=O)[C@@H](NC(=O)[C@H](C)NC(=O)[C@@H]1CSSC[C@H](NC(=O)[C@H](CCCCN)NC(=O)CC[C@H](NC(=O)CCCCCCCCCCCCCCCCCCC(=O)O)C(=O)O)C(=O)N[C@@H](CC(N)=O)C(=O)N[C@@H]([C@@H](C)O)C(=O)N[C@@H](C)C(=O)N[C@@H]([C@@H](C)O)C(=O)N1)[C@@H](C)O)C(=O)N[C@@H](CC(C)C)C(=O)N1CCC[C@H]1C(=O)N1CCC[C@H]1C(=O)N[C@H](C(=O)N[C@@H](CC(N)=O)C(=O)N[C@H](C(=O)NCC(=O)N[C@@H](CO)C(=O)N[C@@H](CC(N)=O)C(=O)N[C@H](C(=O)N1CCC[C@H]1C(N)=O)[C@@H](C)O)C(C)C)[C@@H](C)O` [Cagrilintide, reference compound], for which the Relative activity on human amylin receptors is given as 100%. Moreover, the “Purity from the reversed phase chromatography-214 nm, 0 d” value in data set [1] (1 mg/mL, pH about 7.4, 40° C., 0 d) is 90.04. Further, the “Purity from the reversed phase chromatography-214 nm, 7 d” value in data set [1] (1 mg/mL, pH about 7.4, 40° C., 7 d) was found to be 82.03. For the same compound, the “Purity from the reversed phase chromatography-214 nm, 28 d” value in data set [1] (1 mg/mL, pH about 7.4, 40° C., 28 d) is listed as 73.89. Besides, the “Change (7 d − 0 d)” value in data set [1] (purity on 7 d − purity on 0 d, 40° C., pH about 7.4) is −8.01. The “Change (28 d − 0 d)” value in data set [1] (purity on 28 d − purity on 0 d, 40° C., pH about 7.4) is given as −16.15. The “Reduction in purity, 10 d” value in data set [2] is on record as 44.83%. In “in vivo”, this compound had an AUC(0-inf) of 177 µg·h/mL, an AUC(0-t) of 173 µg·h/mL, a Cmax of 3270 ng/mL and an MRT inf of 43.4 h. Moreover, in the data set “in vivo”, the Tmax came out at 24 h and the half-life is 24.7 h.
On to `CC[C@H](C)[C@H](NC(=O)[C@@H]1CCCN1C(=O)[C@H](CCCCN)NC(=O)[C@H](CC(C)C)NC(=O)[C@H](CC(N)=O)NC(=O)[C@H](C)NC(=O)[C@H](CO)NC(=O)[C@H](CO)NC(=O)[C@H](Cc1c[nH]cn1)NC(=O)[C@H](CCCNC(=N)N)NC(=O)[C@H](CC(C)C)NC(=O)[C@H](Cc1ccccc1)NC(=O)[C@H](CC(=O)O)NC(=O)[C@H](C)NC(=O)[C@H](CC(C)C)NC(=O)[C@H](CCCNC(=N)N)NC(=O)[C@H](CCC(N)=O)NC(=O)[C@@H](NC(=O)[C@H](C)NC(=O)[C@H](C)NC(=O)[C@@H](NC(=O)[C@H](CO)NC(=O)[C@H](CC(C)C)NC(=O)[C@H](CCC(N)=O)NC(=O)[C@H](CO)NC(=O)[C@H](C)NC(=O)CC[C@H](NC(=O)CCCCCCCCCCCCCCCCCCC(=O)O)C(=O)O)[C@@H](C)O)[C@@H](C)O)C(=O)N[C@@H](CC(C)C)C(=O)N1CCC[C@H]1C(=O)N1CCC[C@H]1C(=O)N[C@H](C(=O)N[C@@H](CC(N)=O)C(=O)N[C@H](C(=O)NCC(=O)N[C@@H](CO)C(=O)N[C@@H](CC(N)=O)C(=O)N[C@H](C(=O)N1C[C@H](O)C[C@H]1C(N)=O)[C@@H](C)O)C(C)C)[C@@H](C)O` [M50] ({C20 diacid-γGlu}-ASQLSTAATQRLADFLRHSSANLKPILPPTNVGSNT[Hyp]-NH2), for which, on human amylin receptors, the Relative activity was 186% and a half-maximal response (EC50) required 0.07 nM. Also, in data set [2], the “Reduction in purity, 10 d” value amounted to 7.76% and the “Reduction in purity, 20 d” value came to 14.46%.
Taken in the same sequence, the figures for `CC[C@H](C)[C@H](NC(=O)[C@@H]1CCCN1C(=O)[C@H](CCCCN)NC(=O)[C@H](CC(C)C)NC(=O)[C@H](CC(N)=O)N(C)C(=O)[C@H](CC(N)=O)NC(=O)[C@H](CO)NC(=O)[C@H](CO)NC(=O)[C@H](Cc1c[nH]cn1)NC(=O)[C@H](CCCNC(=N)N)NC(=O)[C@H](CC(C)C)NC(=O)[C@H](Cc1ccccc1)NC(=O)[C@H](CC(=O)O)NC(=O)[C@H](C)NC(=O)[C@H](CC(C)C)NC(=O)[C@H](CCCNC(=N)N)NC(=O)[C@H](CCC(N)=O)NC(=O)[C@@H](NC(=O)[C@H](C)NC(=O)[C@H](C)NC(=O)[C@@H](NC(=O)[C@H](CO)NC(=O)[C@H](CC(C)C)NC(=O)[C@H](CCC(N)=O)NC(=O)[C@H](CO)NC(=O)[C@H](C)NC(=O)CC[C@H](NC(=O)CCCCCCCCCCCCCCCCCCC(=O)O)C(=O)O)[C@@H](C)O)[C@@H](C)O)C(=O)N[C@@H](CC(C)C)C(=O)N1CCC[C@H]1C(=O)N1CCC[C@H]1C(=O)N[C@H](C(=O)N[C@@H](CC(N)=O)C(=O)N[C@H](C(=O)NCC(=O)N[C@@H](CO)C(=O)N[C@@H](CC(N)=O)C(=O)N[C@H](C(=O)N1C[C@H](O)C[C@H]1C(N)=O)[C@@H](C)O)C(C)C)[C@@H](C)O` [M44] ({C20 diacid-γGlu}-ASQLSTAATQRLADFLRHSSN[NMeN]LKPILPPTNVGSNT[Hyp]-NH2) were 130%, 0.1 nM, 21.09% and 37.35%.
For the compound `CC[C@H](C)[C@H](NC(=O)[C@@H]1CCCN1C(=O)[C@H](CCCCN)NC(=O)[C@H](CC(C)C)NC(=O)[C@H](CC(N)=O)NC(=O)[C@@H](NC(=O)[C@H](CO)NC(=O)[C@H](CO)NC(=O)[C@H](Cc1c[nH]cn1)NC(=O)[C@H](CCCNC(=N)N)NC(=O)[C@H](CC(C)C)NC(=O)[C@H](Cc1ccccc1)NC(=O)[C@H](CC(=O)O)NC(=O)[C@H](C)NC(=O)[C@H](CC(C)C)NC(=O)[C@H](CCCNC(=N)N)NC(=O)[C@H](CCC(N)=O)NC(=O)[C@@H](NC(=O)[C@H](C)NC(=O)[C@H](C)NC(=O)[C@@H](NC(=O)[C@H](CO)NC(=O)[C@H](CC(C)C)NC(=O)[C@H](CCC(N)=O)NC(=O)[C@H](CO)NC(=O)[C@H](C)NC(=O)CC[C@H](NC(=O)CCCCCCCCCCCCCCCCCCC(=O)O)C(=O)O)[C@@H](C)O)[C@@H](C)O)[C@@H](C)O)C(=O)N[C@@H](CC(C)C)C(=O)N1CCC[C@H]1C(=O)N1CCC[C@H]1C(=O)N[C@H](C(=O)N[C@@H](CC(N)=O)C(=O)N[C@H](C(=O)NCC(=O)N[C@@H](CO)C(=O)N[C@@H](CC(N)=O)C(=O)N[C@H](C(=O)N1C[C@H](O)C[C@H]1C(N)=O)[C@@H](C)O)C(C)C)[C@@H](C)O` [M49] ({C20 diacid-γGlu}-ASQLSTAATQRLADFLRHSSTNLKPILPPTNVGSNT[Hyp]-NH2), at human amylin receptors, the Relative activity is on record as 163% and the midpoint of the response, the EC50, lay at 0.08 nM. Moreover, the “Reduction in purity, 10 d” value in data set [2] is 8.5%.
On the same counts, the results for `CC[C@H](C)[C@H](NC(=O)[C@@H]1CCCN1C(=O)[C@H](CCCCN)NC(=O)[C@H](CC(C)C)NC(=O)[C@H](CC(N)=O)NC(=O)[C@H](CO)NC(=O)[C@H](CO)NC(=O)[C@H](CO)NC(=O)[C@H](Cc1c[nH]cn1)NC(=O)[C@H](CCCNC(=N)N)NC(=O)[C@H](CC(C)C)NC(=O)[C@H](Cc1ccccc1)NC(=O)[C@H](CC(=O)O)NC(=O)[C@H](C)NC(=O)[C@H](CC(C)C)NC(=O)[C@H](CCCNC(=N)N)NC(=O)[C@H](CCC(N)=O)NC(=O)[C@@H](NC(=O)[C@H](C)NC(=O)[C@H](C)NC(=O)[C@@H](NC(=O)[C@H](CO)NC(=O)[C@H](CC(C)C)NC(=O)[C@H](CCC(N)=O)NC(=O)[C@H](CO)NC(=O)[C@H](C)NC(=O)CC[C@H](NC(=O)CCCCCCCCCCCCCCCCCCC(=O)O)C(=O)O)[C@@H](C)O)[C@@H](C)O)C(=O)N[C@@H](CC(C)C)C(=O)N1CCC[C@H]1C(=O)N1CCC[C@H]1C(=O)N[C@H](C(=O)N[C@@H](CC(N)=O)C(=O)N[C@H](C(=O)NCC(=O)N[C@@H](CO)C(=O)N[C@@H](CC(N)=O)C(=O)N[C@H](C(=O)N1C[C@H](O)C[C@H]1C(N)=O)[C@@H](C)O)C(C)C)[C@@H](C)O` [M48] ({C20 diacid-γGlu}-ASQLSTAATQRLADFLRHSSSNLKPILPPTNVGSNT[Hyp]-NH2) are 180%, 0.05 nM and 8.61%.
